Reference: US10168342B2, “Lipid probes and uses thereof” (THE SCRIPPS RESEARCH INSTITUTE, priority 2015, dated 2019)
Where two headings read alike, the source gives them in different places.

Experiments:
[1] = molecular target: T1, AEA-DA lipid probe targets in Neuro2a cells (Mus musculus, UniProt Q9WV54)
T1 sequence (Q9WV54 19-394): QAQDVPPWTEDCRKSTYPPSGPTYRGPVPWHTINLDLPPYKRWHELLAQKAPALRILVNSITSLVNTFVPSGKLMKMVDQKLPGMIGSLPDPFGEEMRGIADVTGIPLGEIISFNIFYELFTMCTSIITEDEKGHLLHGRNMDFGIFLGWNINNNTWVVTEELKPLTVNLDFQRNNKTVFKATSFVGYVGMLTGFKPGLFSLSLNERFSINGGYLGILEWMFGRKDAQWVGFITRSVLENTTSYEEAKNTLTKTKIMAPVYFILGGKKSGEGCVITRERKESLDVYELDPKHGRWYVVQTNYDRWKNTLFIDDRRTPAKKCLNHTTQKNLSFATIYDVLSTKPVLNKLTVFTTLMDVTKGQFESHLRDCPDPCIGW

[2] = molecular target: T2, AEA-DA lipid probe targets in Neuro2a cells (Mus musculus, UniProt Q60930); conditions: Neuro2a cells, AEA-DA probe
T2 sequence (Q60930 1-295): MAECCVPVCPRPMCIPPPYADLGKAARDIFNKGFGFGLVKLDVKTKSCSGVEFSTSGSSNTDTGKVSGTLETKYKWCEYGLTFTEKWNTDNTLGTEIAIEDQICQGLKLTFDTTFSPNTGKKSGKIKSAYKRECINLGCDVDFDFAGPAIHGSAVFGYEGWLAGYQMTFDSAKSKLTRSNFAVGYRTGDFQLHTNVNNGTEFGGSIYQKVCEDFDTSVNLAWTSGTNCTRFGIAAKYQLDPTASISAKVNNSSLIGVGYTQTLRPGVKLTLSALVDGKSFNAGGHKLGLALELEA

[3] = molecular target: T3, AEA-DA lipid probe targets in Neuro2a cells (Mus musculus, UniProt Q9DBH5)
T3 sequence (Q9DBH5 47-358): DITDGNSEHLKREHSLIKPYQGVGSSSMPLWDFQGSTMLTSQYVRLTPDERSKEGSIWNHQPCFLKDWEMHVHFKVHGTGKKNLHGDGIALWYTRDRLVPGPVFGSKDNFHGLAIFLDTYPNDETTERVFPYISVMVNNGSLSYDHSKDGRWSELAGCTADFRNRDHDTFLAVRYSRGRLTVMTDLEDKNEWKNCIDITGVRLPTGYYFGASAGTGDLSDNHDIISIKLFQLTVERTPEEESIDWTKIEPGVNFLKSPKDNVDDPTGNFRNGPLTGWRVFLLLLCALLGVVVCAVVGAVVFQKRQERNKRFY

[4] = molecular target: T4, AEA-DA lipid probe targets in Neuro2a cells (Mus musculus, UniProt Q9Z0R9); conditions: for SILAC ratio, FADS2 (Q9Z0R9): Neuro2a cells, AEA-DA probe
T4 sequence (Q9Z0R9 1-444): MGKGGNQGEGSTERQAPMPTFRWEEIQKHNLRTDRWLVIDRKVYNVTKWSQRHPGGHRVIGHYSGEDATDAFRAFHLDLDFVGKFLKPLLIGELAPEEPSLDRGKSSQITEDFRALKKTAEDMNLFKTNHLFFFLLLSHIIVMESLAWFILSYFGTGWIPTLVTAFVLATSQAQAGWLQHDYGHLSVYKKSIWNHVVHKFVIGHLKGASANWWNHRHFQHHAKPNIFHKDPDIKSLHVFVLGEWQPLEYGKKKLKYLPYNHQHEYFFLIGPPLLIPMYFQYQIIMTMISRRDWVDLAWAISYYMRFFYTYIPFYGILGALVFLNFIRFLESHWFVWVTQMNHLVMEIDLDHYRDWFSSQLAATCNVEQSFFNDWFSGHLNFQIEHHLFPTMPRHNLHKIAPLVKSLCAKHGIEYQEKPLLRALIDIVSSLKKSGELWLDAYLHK

[5] = molecular target: AEA-DA lipid probe targets in Neuro2a cells (Mus musculus, UniProt P47740)
Chain of AEA-DA lipid probe targets in Neuro2a cells (Mus musculus, UniProt P47740) (P47740 whole entry): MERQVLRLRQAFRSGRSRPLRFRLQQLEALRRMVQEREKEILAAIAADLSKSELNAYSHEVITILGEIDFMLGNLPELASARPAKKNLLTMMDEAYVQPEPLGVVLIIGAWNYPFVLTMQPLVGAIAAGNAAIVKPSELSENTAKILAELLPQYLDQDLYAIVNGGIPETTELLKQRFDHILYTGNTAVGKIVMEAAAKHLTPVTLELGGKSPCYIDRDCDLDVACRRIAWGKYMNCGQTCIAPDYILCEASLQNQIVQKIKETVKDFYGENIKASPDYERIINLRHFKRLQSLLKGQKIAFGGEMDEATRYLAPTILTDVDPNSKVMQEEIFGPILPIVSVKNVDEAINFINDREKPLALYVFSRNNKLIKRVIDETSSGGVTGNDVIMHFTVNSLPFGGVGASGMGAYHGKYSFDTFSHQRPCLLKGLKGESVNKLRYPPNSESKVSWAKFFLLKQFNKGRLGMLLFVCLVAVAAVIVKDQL

[6] = molecular target: T5, AEA-DA lipid probe targets in Neuro2a cells (Mus musculus, UniProt Q9Z2Z6)
T5 sequence (Q9Z2Z6 1-301): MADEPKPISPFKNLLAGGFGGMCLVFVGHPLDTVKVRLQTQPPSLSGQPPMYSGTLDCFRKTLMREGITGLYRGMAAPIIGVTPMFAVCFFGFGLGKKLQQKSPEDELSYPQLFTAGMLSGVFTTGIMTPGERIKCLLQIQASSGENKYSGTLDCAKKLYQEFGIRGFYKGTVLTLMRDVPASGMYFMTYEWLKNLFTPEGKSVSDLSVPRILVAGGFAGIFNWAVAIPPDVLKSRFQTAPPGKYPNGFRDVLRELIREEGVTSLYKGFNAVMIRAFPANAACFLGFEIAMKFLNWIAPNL

CCCCC/C=C\C/C=C\C/C=C\C/C=C\CCCC(=O)NCCO [AEA, anandamide, reference compound]
SILAC ratio Asah1 ([1]; competitor 200 μM): 0.8
SILAC ratio, VDAC2 (P45880) ([2]; competitor 200 μM): 1.2
SILAC ratio Lman2 ([3]; competitor 200 μM): 1.5
SILAC ratio, FADS2 (Q9Z0R9) ([4]; competitor 200 μM): 2.5
SILAC ratio, Fads2 ([4]; competitor 200 μM): 2.5
SILAC ratio, Aldh3a2 ([5]; competitor 200 μM): 1.7
SILAC ratio Slc25a20 ([6]; competitor 200 μM): 1.6

O=C(/C=C/c1cccnc1)NCCCCC1CCN(C(=O)c2ccccc2)CC1 [FK-866, reference compound]
SILAC ratio Asah1 ([1]; competitor 25 μM): 1.3
SILAC ratio, VDAC2 (P45880) ([2]; competitor 25 μM): 1.0
SILAC ratio Lman2 ([3]; competitor 25 μM): 1.1
SILAC ratio, FADS2 (Q9Z0R9) ([4]; competitor 25 μM): 1.2
SILAC ratio, Fads2 ([4]; competitor 25 μM): 1.2
SILAC ratio, Aldh3a2 ([5]; competitor 25 μM): 1.6
SILAC ratio Slc25a20 ([6]; competitor 25 μM): 1.4

CN1CCN(C(=O)c2c(-c3ccccc3)c3cc([N+](=O)[O-])ccc3n2C)CC1 [KML110, (1-Methyl-5-nitro-3-phenyl-1H-indol-2-yl)(4-methylpiperazin-1-yl)methanone]
SILAC ratio Asah1 ([1]; competitor 25 μM): 1.2
SILAC ratio Lman2 ([3]; competitor 25 μM): 1.3
SILAC ratio, Fads2 ([4]; competitor 25 μM): 1.4
SILAC ratio, Aldh3a2 ([5]; competitor 25 μM): 1.4
SILAC ratio Slc25a20 ([6]; competitor 25 μM): 1.5

CN1CCN(C(=O)c2[nH]c3ccc([N+](=O)[O-])cc3c2-c2ccccc2)CC1 [MJN228, (4-Methylpiperazin-1-yl)(5-nitro-3-phenyl-1H-indol-2-yl)methanone]
SILAC ratio Asah1 ([1]; competitor 10 μM): 1.4
SILAC ratio Asah1 ([1]; competitor 25 μM): 1.6
SILAC ratio Asah1 ([1]; competitor 50 μM): 2.2
SILAC ratio Asah1 ([1]; competitor 100 μM): 2.1
SILAC ratio, VDAC2 (P45880) ([2]; competitor 25 μM): 1.0
SILAC ratio Lman2 ([3]; competitor 10 μM): 1.2
SILAC ratio Lman2 ([3]; competitor 25 μM): 1.1
SILAC ratio Lman2 ([3]; competitor 50 μM): 2.1
SILAC ratio Lman2 ([3]; competitor 100 μM): 1.5
SILAC ratio, FADS2 (Q9Z0R9) ([4]; competitor 25 μM): 1.8
SILAC ratio, Fads2 ([4]; competitor 10 μM): 1.3
SILAC ratio, Fads2 ([4]; competitor 25 μM): 1.8
SILAC ratio, Fads2 ([4]; competitor 50 μM): 1.9
SILAC ratio, Fads2 ([4]; competitor 100 μM): 2.8
SILAC ratio, Aldh3a2 ([5]; competitor 10 μM): 1.2
SILAC ratio, Aldh3a2 ([5]; competitor 25 μM): 1.8
SILAC ratio, Aldh3a2 ([5]; competitor 50 μM): 1.7
SILAC ratio, Aldh3a2 ([5]; competitor 100 μM): 2.1
SILAC ratio Slc25a20 ([6]; competitor 10 μM): 1.4
SILAC ratio Slc25a20 ([6]; competitor 25 μM): 1.4
SILAC ratio Slc25a20 ([6]; competitor 50 μM): 2.4
SILAC ratio Slc25a20 ([6]; competitor 100 μM): 3.4

C=CCN(C)CCCCCCOc1ccc(C(=O)c2ccc(Br)cc2)c(F)c1 [Ro 48-8071, reference compound]
SILAC ratio Asah1 ([1]; competitor 25 μM): 1.0
SILAC ratio, VDAC2 (P45880) ([2]; competitor 25 μM): 1.0
SILAC ratio Lman2 ([3]; competitor 25 μM): 0.7
SILAC ratio, FADS2 (Q9Z0R9) ([4]; competitor 25 μM): 1.2
SILAC ratio, Fads2 ([4]; competitor 25 μM): 1.2
SILAC ratio, Aldh3a2 ([5]; competitor 25 μM): 1.3
SILAC ratio Slc25a20 ([6]; competitor 25 μM): 1.2
